Measurements as given in patent publication US20120289566A1, “COMBINATIONS OF FESOTERODINE AND SALIVARY STIMULANTS FOR THE TREATMENT OF OVERACTIVE BLADDER” (THERAVIDA, INC., priority 2011, published 2012).

What was measured:
[1] = tested on: saliva output; conditions: 5 mg of pilocarpine; cited from earlier work
[2] = tested on: saliva flow; experiment: Case study: stimulated saliva output (Parafilm chewing, 2 min) after Toviaz and pilocarpine in a single individual; type: in vivo, human; conditions: after the administration of 8 mg Toviaz
Experimental: In this study, the effect of fesoterodine (Toviaz®), pilocarpine, the combination of the two, and placebo was measured in separate, yet identical, studies in a single individual.
The following protocol was for a pilot human study to evaluate the extent of saliva flow rate following the administration of 8 mg Toviaz® capsule and 5 or 7.5 mg pilocarpine HCl tablet after about 2.5 hrs from fesoterodine administration. The subject was a healthy, person. The subject performed the following: • 1. Fast the night before. • 2. No coffee or soda 8 hrs prior to taking the first dose. • 3. Record time voiding and measure urine if possible. • 4. Record extent of dryness of the mouth (Very dry, dry, and not dry). • 5. Record any adverse event. • 6. Chew a 1″×1″ piece of Parafilm (American National Can (Neenah, Wis. 54956) Bar code No. 7-466676999) over 2 minutes. • 7. Collect wetted Parafilm and saliva into a tared container (pre-weighed container). • 8. Measure the amount of saliva collected. • 9. Plot Saliva collected per 2 min time intervals against time.
The subject fasted overnight, but had 240 mL of water 1 hr prior to dose. The water continued ad lib until 1 hr pre and 1 hr post dose, other than 120 mL with Toviaz® and 120 mL with 5 mg Salagen® tablet. For lunch, the subject consumed a light sandwich. No coffee, soda, or caffeinated or alcoholic beverages was consumed.

In the case of `CC[C@@H]1C(=O)OC[C@@H]1Cc1cncn1C` [pilocarpine], the “time of maximum saliva output after administration” value [1] is listed as “about 30 minutes” and the “time of pilocarpine administration after Toviaz at which best results are obtained” value [2] is listed as 2.3 to 2.5 h.
